Reference: patent publication US20160038411A1, “PULSATILE GASTRIC RETENTIVE DOSAGE FORMS” (Depomed, Inc., priority 2007, published 2016)
Read-outs that look alike come from different tables or passages of the source. Values belong to the compound of their own block, whether it stands above or below them.

What was measured:
nocturnal heartburn = settings: cited from earlier work
[1] = Two-period crossover study in GERD patients: plasma omeprazole PK; assay type: in vivo, human; settings: for AUC: human, plasma, oral, read-out: median AUC (25-75%)
Procedure: (§1) Sixteen patients with a history of GERD, all of whom experienced recurrent nighttime reflux for at least three months while taking proton pump inhibitors, were enrolled. […] Ambulatory 24-hour gastric pH was recorded and blood samples taken for PK analysis on days 6-7. Following a seven day washout the patients were crossed over to the alternate treatment. NAB was defined as an intra-gastric pH<4 for more than 1 hour between 22:00 hour and 06:00 hour (10:00 PM and 6:00 AM).

[2] = Four-way crossover pharmacokinetic study of omeprazole (limited colonic absorption); assay type: in vivo; settings: human, plasma, 20 mg; for AUC: mean±SD
Excerpt: Nine healthy subjects were entered into the study with an intention to complete treatment of at least six subjects. […] A period of at least four days for washout was allowed between dosing.

[3] = tested on: NAB (intra-gastric pH<4 for more than 1 hour between 22:00 and 06:00); test: Two-period crossover study in GERD patients: ambulatory 24-hour gastric pH, NAB; assay type: in vivo, human
Procedure: as §1, with “enrolled. The study was an open label crossover study in which 14 of the 16 patients participated in each of two treatment arms separated by a washout period.” for “enrolled.”

basal acid output = settings: 20 mg dose, healthy volunteers and patients, cited from earlier work
pH of the stomach = settings: cited from earlier work
[4] = pH 11 phosphate buffer; cited from earlier work

SMILES: COc1ccc2nc([S@@+]([O-])Cc3ncc(C)c(OC)c3C)[nH]c2c1 [esomeprazole]
GERD patients with relief of nocturnal heartburn (nocturnal heartburn): 50%

patients who did not start absorbing omeprazole until 4-5 hours after the initial dose ([1]; 20 mg at dinner + 20 mg 4 hours later, of the 14 patients (FIG. 7B)): 36%
blood levels of omeprazole between 2:00 and 3:00 AM ([1]; 40 mg single dose arm, the three patients who experienced NAB): undetectable levels
time until start of omeprazole absorption after the initial 20 mg dose ([1]; five of the 14 patients of the two dose arm (FIG. 7B)): 4 to 5 h
AUC ([1]; 20 mg at dinner + 20 mg four hours later for six days, all patients, n = 14): 1860 ng·h/mL
AUC ([1]; 20 mg at dinner + 20 mg four hours later, patients with NAB (n = 5)): 1670 ng·h/mL
AUC ([1]; 20 mg at dinner + 20 mg four hours later, patients without NAB (n = 9)): 1910 ng·h/mL
AUC ([2]; iv, (iv) 20 mg omeprazole delivered to the ascending colon via ENTERION capsule): 242 ± 323 ng·h/mL
Tmax ([2]; iv, (iv) Colonic): 1.8 h
bioavailability ([2]; iv, (iv) Colonic, compared to fasted state, read-out: Relative bioavailability): 22 ± 12%
bioavailability ([2]; oral, 20 mg fed, one of the subjects removed from the analysis, read-out: relative bioavailability in the fed state compared to fasting): 96 ± 7%
Tmax ([2]; oral, (i) SCR): 4.9 h
bioavailability ([2]; oral, (i) SCR, fed state, compared to fasted state, read-out: Relative bioavailability): 61 ± 15%
AUC ([2]; oral, (i) SCR: 20 mg omeprazole divided into 17 doses at 30 minute intervals (8 hr), fed state, n = 7): 568 ± 727 ng·h/mL
AUC ([2]; oral, (ii) 20 mg omeprazole in the fed state, n = 7): 849 ± 999 ng·h/mL
Tmax ([2]; oral, (ii) Fed): 3.7 h
bioavailability ([2]; oral, (ii) Fed, compared to fasted state, read-out: Relative bioavailability): 90 ± 16%
AUC ([2]; oral, (iii) 20 mg omeprazole in the fasted state, n = 7): 969 ± 1090 ng·h/mL
bioavailability ([2]; oral, (iii) Fasted (reference arm), read-out: Relative bioavailability): 100%
bioavailability ([2]; other: ENTERION capsule activated in the terminal ileum, one subject, ENTERION capsule activated in the terminal ileum, read-out: relative bioavailability compared to fasted state): 58%
SMILES: COc1ccc2[nH]c([S+]([O-])Cc3ncc(C)c(OC)c3C)nc2c1 (stereo not drawn) [omeprazole, 5-methoxy-2-[[(4-methoxy-3,5-dimethyl-2-pyridinyl)methyl]sulfinyl]-1H-benzimidazole]
patients who experienced inhibition of NAB ([3]; 20 mg at dinner + 20 mg 4 hours later, the 9 patients with two-dose absorption profile (FIG. 7A)): 100%
occurrence of NAB ([3]; 40 mg single dose 30 minutes before dinner for six days, 14 patients): Three of the patients experienced NAB
occurrence of NAB ([3]; two dose arm, nine patients who achieved blood levels from both doses): none experienced NAB
occurrence of NAB ([3]; two dose arm, the five patients with delayed absorption): All five of those patients experienced NAB
decrease in basal acid output (basal acid output; 2-6 hours after dosing): 78%
decrease in basal acid output (basal acid output; 24 hours after dosing): 50%-80%
nighttime pH control of the stomach, time with pH>4 (pH of the stomach; 40 mg before breakfast): 24 % of the time
nighttime pH control of the stomach, time with pH>4 (pH of the stomach; 40 mg before dinner): 69 % of the time
nighttime pH control of the stomach, time with pH>4 (pH of the stomach; twice-daily (BID) dosing, 20 mg before breakfast and dinner): 80 % of the time
stability at pH 11 [4]: stable at pH 11
